Data published in patent publication US8222244B2, “Staurosporine derivatives as inhibitors of FLT3 receptor tyrosine kinase activity” (Novartis AG, priority 2001, dated 2012).

Target: T1, human Flt-3 (Homo sapiens, UniProt P36888)
T1 construct: expresses the amino acid region amino acids 563-993 of the intra-cytoplasmic kinase domains of human Flt-3; made in house; host or cells: Sf9 insect cells (baculovirus, pFbacG01 donor vector)
T1 sequence (P36888 563-993): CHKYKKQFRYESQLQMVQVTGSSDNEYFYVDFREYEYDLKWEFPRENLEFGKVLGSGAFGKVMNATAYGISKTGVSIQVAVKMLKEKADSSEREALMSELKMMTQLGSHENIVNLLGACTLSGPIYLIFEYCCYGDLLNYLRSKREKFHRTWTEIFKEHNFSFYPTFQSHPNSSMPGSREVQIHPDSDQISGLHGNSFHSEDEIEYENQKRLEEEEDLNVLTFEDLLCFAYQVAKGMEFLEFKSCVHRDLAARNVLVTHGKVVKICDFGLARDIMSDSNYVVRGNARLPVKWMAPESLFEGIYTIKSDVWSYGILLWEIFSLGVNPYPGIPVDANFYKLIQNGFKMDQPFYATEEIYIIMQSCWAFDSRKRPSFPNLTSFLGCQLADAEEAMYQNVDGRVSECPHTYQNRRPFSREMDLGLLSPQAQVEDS
Assay: Tyrosine protein kinase assay with purified GST-Flt-3 (33P incorporation)
Type: biochemical
Conditions: at a 1.0 micromolar concentration
Description: ATP into appropriate substrates.
The coding sequences for the cytoplasmic domain of Flt-3 was amplified by PCR from human c-DNA libraries (Clontech). The amplified DNA fragments and the pFbacG01 vector were made compatible for ligation by digestion with BamH1 and Hind III. […] The production of the viruses, the expression of proteins in Sf9 cells and the purification of the GST-fused proteins were performed as following:
(Generation of Bac- to Bac GST-fusion vectors); pFbacG01, pFbacGST2T and pFbacGSTx3 Bac-to-Bac™ donor vectors were generated from pAcG1, pAcG2T and pAcG3X respectively, which facilitate the expression of GST-fusion proteins with the possibility of cleavage with thrombin (pFbacGT2) or factor Xa (pFbacGSTx3) while pFbacG01 expresses no proteolytic cleavage site. These were generated in house by isolation of the DNA fragment containing the gene for GST with the C-terminal protease and restriction sites by restriction enzyme digestion of the relevant PharMingen baculovirus donor vector with EcoRV and EcoRI. This EcoRV/EcoRI fragment was ligated into the pFastBac1 vector which had been restriction digested with BamHI, blunt-ended by Klenow reaction and subsequently digested with EcoRI to generate a blunt-ended/EcoRI vector. (Production of virus); Transfer vectors containing the kinase domains were transfected into the DH10Bac cell line (GIBCO) and plated on selective agar plates. Colonies without insertion of the fusion sequence into the viral genome (carried by the bacteria) are blue. Single white colonies were picked and viral DNA (bacmid) isolated from the bacteria by standard plasmid purification procedures. Sf9 cells or Sf21 cells were then transfected in 25 cm^2 flasks with the viral DNA using Cellfectin reagent. (Determination of small scale protein expression in Sf9 cells); Virus containing media was collected from the transfected cell culture and used for infection to increase its titer. Virus containing media obtained after two rounds of infection was used for large-scale protein expression. For large-scale protein expression 100 cm^2 round tissue culture plates were seeded with 5×10^7 cells/plate and infected with 1 mL of virus-containing media (approx. 5 MOIs). After 3 days the cells were scraped off the plate and centrifuged at 500 rpm for 5 min. Cell pellets from 10-20, 100 cm^2 plates, were resuspended in 50 mL of ice-cold lysis buffer (25 mMTris-HCl, pH7.5, 2 mMEDTA, 1% NP-40, 1 mM DTT, 1 mMP MSF). The cells were stirred on ice for 15 min and then centrifuged at 5000 rpms for 20 min.
ATP 0.1 μCi). […] ATP into appropriate substrates. […] Subsequently, 40 μL of the reaction mixture were transferred onto Immobilon-PVDF membrane (Millipore, Bedford, Mass., USA) previously soaked for 5 min with methanol, rinsed with water, then soaked for 5 min with 0.5% H3PO4 and mounted on vacuum manifold with disconnected vacuum source. After spotting all samples, vacuum was connected and each well rinsed with 200 μL 0.5% H3PO4. Membranes were removed and washed 4× on a shaker with 1.0% H3PO4, once with ethanol. Membranes were counted after drying at ambient temperature, mounting in Packard TopCount 96-well frame, and addition of 10 μL/well of Microscint™ (Packard). […] One unit of protein kinase activity is defined as 1 nmole of ^33P ATP transferred from [γ^33P] ATP to the substrate protein per minute per mg of protein at 37° C.

Compound | Flt3 Inhibition (percent inhibition of Flt3 kinase activity)
11-[[N-Acetyl-1-O-methyl-4,6-O-(phenylmethylene)-a-normuramoyl]methylamino]-2,3,10,11,12,13-hexahydro-10-methoxy-9-methyl-9,13-epoxy-1H,9H-diindolo[1,2,3-gh:3′,2′,1′-lm]pyrrolo[3,4-j][1,7]benzodiazonin-1-one [149622-43-5] | 66%
CO[C@@H]1[C@H](N(C)C(=O)C(C)(C)OC2CCOCC2)C[C@H]2O[C@]1(C)n1c3ccccc3c3c4c(c5c6ccccc6n2c5c31)C(=O)NC4 [160251-55-8, [9S-(9a,10b,11b,13a)]-N-(2,3,10,11,12,13-Hexahydro-10-methoxy-9-methyl-1-oxo-9,13-epoxy-1H,9H-diindolo[1,2,3-gh:3′,2′,1′-lm]pyrrolo[3,4-j][1,7]benzodiazonin-11-yl)-N,2-dimethyl-2-[(tetrahydro-2H-pyran-4-yl)oxy]-propanamide] | 85%
N-[(9S,10R,11R,13R)-2,3,10,11,12,13-Hexahydro-10-methoxy-9-methyl-1-oxo-9,13-epoxy-1H,9H-diindolo[1,2,3-gh:3′,2′,1′-lm]pyrrolo[3,4-j][1,7]benzodiazonin-11-yl]-2-hydroxy-N-methyl-Benzamide [178955-60-7] | 89%
(9a,10b,11b,13a)-11-[[N-Acetyl-6-amino-6-deoxy-1-O-(phenylmethyl)-a-muramoyl]methylamino]-2,3,10,11,12,13-hexahydro-10-methoxy-9-methyl-9,13-epoxy-1H,9H-diindolo[1,2,3-gh:3′,2′,1′-lm]pyrrolo[3,4-j][1,7]benzodiazonin-1-one, monomethanesulfonate [150622-14-3] | 99%
[9S-(9a,10b,13a)]-2,3,9,10,12,13-Hexahydro-10-hydroxy-9-methyl-9,13-epoxy-1H,11H-diindolo[1,2,3-gh:3′,2′,1′-lm]pyrrolo[3,4-j][1,7]benzodiazonine-1,11-dione, 11-oxime [187457-73-4] | 89%
COC1C(N(C)CC(=O)O)CC2OC1(C)n1c3ccccc3c3c4c(c5c6ccccc6n2c5c31)C(=O)NC4 (stereo not drawn) [120685-22-5, [9S-(9a,10b,11b,13a)]-N-(2,3,10,11,12,13-Hexahydro-10-methoxy-9-methyl-1-oxo-9,13-epoxy-1H,9H-diindolo[1,2,3-gh:3′,2′,1′-lm]pyrrolo[3,4-j][1,7]benzodiazonin-11-yl)-N-methyl-glycine] | 98%
COC1C(N(C)C(=O)CNC(=O)OCc2ccccc2)CC2OC1(C)n1c3ccccc3c3c4c(c5c6ccccc6n2c5c31)C(=O)NC4 (stereo not drawn) [125035-78-1, (9a,10b,11b,13a)-[2-[(2,3,10,11,12,13-Hexahydro-10-methoxy-9-methyl-1-oxo-9,13-epoxy-1H,9H-diindolo[1,2,3-gh:3′,2′,1′-lm]pyrrolo[3,4-j][1,7]benzodiazonin-11-yl)methylamino]-2-oxoethyl]-carbamic acid, phenylmethyl ester] | 52%
COC1C(N(C)C(=O)c2ccc(C(=O)[O-])cc2)CC2OC1(C)n1c3ccccc3c3c4c(c5c6ccccc6n2c5c31)C(=O)NC4.[Na+] (stereo not drawn) [120751-44-2, [9S-(9a,10b,11b,13a)]-4-[[(2,3,10,11,12,13-Hexahydro-10-methoxy-9-methyl-1-oxo-9,13-epoxy-1H,9H-diindolo[1,2,3-gh:3′,2′,1′-lm]pyrrolo[3,4-j][1,7]benzodiazonin-11-yl)methylamino]carbonyl]-benzoic acid, monosodium salt] | 90%
(2,3,10,11,12,13-hexahydro-10-methoxy-9-methyl-1-oxo-9,13-epoxy-1H,9H-diindolo[1,2,3-gh:3′,2′,1′-lm]pyrrolo[3,4-j][1,7]benzodiazonin-11-yl)methyl-carbamic acid, phenylmethyl ester [159404-67-8] | 64%
